Experiments:
HD cell models = test: HSF1 levels revived with CK2 inhibitors in HD cell models; format: cell-based
[1] = tested on: Htt-Q74 expressing PC12 cells; test: Hsp70 immunoblot after CK2 inhibitor pre-treatment, Htt-Q74 induction and heat shock; format: cell-based, rat; details: 0.5, 1 and 5 μM for 15 h prior to doxycycline induction; heat shock 42° C. 1 h, 7 h recovery
Procedure: Then cells were either not treated (−Dox) or treated with doxycycline at 1 microgram/mL during 3 days (+Dox) at 37° C. Cells were then heat shocked at 42° C. (1 h) followed by 7 h recovery (HS) at 37° C. Total protein was analyzed by SDS-PAGE and immunoblotting for Hsp70 and GAPDH. (D) Cells from CK2 kinase inhibitor treatment were analyzed by fluorescence microscopy using GFP as a marker for Htt-Q74 aggregation and the number of cells with inclusions bodies was quantified and normalized with total cell number from DIC images, as a measure of Htt-Q74 protein aggregation. Data are presented as mean±SE from three separate experiments (* P<0.05, ** P<0.01). (E) Htt-Q74 PC12 cells were incubated at 37° C. in a 96-well plate in the presence of either DMSO or the kinase inhibitor TID43 at 5 microMolar final concentration during 15 h prior to Htt-Q74 induction by doxycycline. Cells were then either not treated or treated with doxycycline at 1 microgram/mL for 3 days (+Dox) at 37° C. and then heat shocked at 42° C. (1 h) followed by 7 h recovery (HS) at 37° C. Cell viability was analyzed using the Cell Titer Glo assay (Promega) and values were expressed as percentage of viable cells compared with untreated cells at 37° C. Data are presented as means±SE from three separate experiments (* P<0.05). […]

Structure (SMILES): O=C(O)c1c[nH]c2c(Cl)c(Cl)ccc2c1=O [Cay10577, 7,8-dichloro-1,4-dihydro-4-oxo-3-quinolinecarboxylic acid]
- HSF1 levels (HD cell models): revived

Structure (SMILES): Cn1cc(C2=C(c3ccc(Cl)cc3Cl)C(=O)NC2=O)c2ccccc21 [SB216763]
- HSF1 activation, Hsp70 expression levels (immunoblot) [1]: rescue HSF1 activation, Hsp70 expression levels
- HSF1 levels (HD cell models): revived

Structure (SMILES): Cc1cc(O)c2c(c1)C(=O)c1cc(O)cc(O)c1C2=O [Emodin]
- HSF1 activation, Hsp70 expression levels (immunoblot) [1]: rescue HSF1 activation, Hsp70 expression levels

Structure (SMILES): Brc1c(Br)c(Br)c2[nH]cnc2c1Br [TBBz]
- HSF1 levels (HD cell models): revived
